We go through one molecule from patent US6534490B1, “Unsaturated 14, 15-cyclopropanoandrostanes, method for the production thereof and pharmaceutical preparations containing said compounds” (Jenapharm GmbH & Co. KG., priority 1998, dated 2003).

Test [1] concerns the target T1, progesterone receptor of the rabbit uterus (Oryctolagus cuniculus, UniProt P06186).
T1 construct: from tissue; host or cells: rabbit uterus
T1 sequence (P06186 1-930): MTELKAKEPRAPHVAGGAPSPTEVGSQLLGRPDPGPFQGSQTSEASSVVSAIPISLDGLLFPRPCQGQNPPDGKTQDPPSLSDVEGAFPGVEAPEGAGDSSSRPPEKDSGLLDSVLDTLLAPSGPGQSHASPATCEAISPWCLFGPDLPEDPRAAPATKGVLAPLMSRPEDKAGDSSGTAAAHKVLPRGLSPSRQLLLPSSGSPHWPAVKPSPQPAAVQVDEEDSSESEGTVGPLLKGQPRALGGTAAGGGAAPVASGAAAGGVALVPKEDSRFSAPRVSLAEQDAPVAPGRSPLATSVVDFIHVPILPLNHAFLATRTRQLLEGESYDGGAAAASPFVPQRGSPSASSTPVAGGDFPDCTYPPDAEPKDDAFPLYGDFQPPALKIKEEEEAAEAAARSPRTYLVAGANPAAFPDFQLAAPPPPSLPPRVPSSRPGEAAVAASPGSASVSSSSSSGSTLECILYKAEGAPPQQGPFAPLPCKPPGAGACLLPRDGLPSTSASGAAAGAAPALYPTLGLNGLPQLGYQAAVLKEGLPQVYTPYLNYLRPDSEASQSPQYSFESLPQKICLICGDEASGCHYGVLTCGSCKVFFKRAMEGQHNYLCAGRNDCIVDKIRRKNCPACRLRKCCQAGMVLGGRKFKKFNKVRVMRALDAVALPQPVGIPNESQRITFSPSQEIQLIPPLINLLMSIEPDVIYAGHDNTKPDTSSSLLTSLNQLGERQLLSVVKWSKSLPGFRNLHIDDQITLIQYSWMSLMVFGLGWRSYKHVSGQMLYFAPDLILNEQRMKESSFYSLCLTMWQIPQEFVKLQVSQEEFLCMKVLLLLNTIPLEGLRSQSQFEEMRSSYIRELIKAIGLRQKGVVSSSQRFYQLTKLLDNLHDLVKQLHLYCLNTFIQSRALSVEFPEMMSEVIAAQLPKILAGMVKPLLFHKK
Kind of test: Binding to the progesterone receptor of the rabbit uterus (reference substance progesterone).

In test [2] the target is T2, androgen receptor of the rat prostate (Rattus norvegicus, UniProt P15207).
T2 construct: from tissue; host or cells: rat prostate
T2 sequence (P15207 1-902): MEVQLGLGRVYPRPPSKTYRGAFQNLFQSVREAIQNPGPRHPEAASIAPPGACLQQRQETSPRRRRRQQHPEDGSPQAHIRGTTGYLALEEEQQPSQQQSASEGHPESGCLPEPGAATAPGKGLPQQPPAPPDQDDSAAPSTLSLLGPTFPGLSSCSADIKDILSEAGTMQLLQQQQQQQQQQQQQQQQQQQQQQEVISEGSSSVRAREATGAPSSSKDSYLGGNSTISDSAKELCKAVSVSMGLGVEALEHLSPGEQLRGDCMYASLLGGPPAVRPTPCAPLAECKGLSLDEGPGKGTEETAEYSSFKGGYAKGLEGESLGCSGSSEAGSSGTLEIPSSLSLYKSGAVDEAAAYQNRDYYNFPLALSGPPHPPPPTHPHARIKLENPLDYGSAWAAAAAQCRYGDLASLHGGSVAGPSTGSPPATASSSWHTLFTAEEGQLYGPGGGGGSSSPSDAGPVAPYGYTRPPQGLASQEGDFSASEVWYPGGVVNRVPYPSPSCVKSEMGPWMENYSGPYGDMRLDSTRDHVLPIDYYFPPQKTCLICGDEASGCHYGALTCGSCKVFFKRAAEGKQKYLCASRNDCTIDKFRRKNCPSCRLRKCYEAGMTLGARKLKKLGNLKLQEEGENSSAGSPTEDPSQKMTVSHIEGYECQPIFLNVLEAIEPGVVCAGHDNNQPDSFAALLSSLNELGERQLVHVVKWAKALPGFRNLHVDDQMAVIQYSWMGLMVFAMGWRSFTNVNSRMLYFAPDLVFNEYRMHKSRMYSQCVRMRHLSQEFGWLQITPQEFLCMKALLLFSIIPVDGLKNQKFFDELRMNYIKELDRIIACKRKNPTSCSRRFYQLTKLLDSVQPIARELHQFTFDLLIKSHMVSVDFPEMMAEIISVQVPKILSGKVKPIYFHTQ
Kind of test: Binding to the androgen receptor of the rat prostate (reference substance R 1881). The conditions noted are these: relative to reference substance R 1881 (17β-hydroxy-17α-methyl-estra-4,9,11-trien-3-one).

The nature of test [3]: Pregnancy maintenance test. The format is in vivo.
The next test is described as follows: Hershberger Test. The format is in vivo.

Consider `C[C@]12CCC(=O)C=C1CC[C@@H]1[C@@H]2CC[C@]2(C)[C@@H](O)C[C@@H]3C[C@]312` [J 1193, 17β-hydroxy-14α,15α-methylen-androst-4-en-3-one], for which the “binding to the progesterone receptor” value in test [1] is given as “virtually no binding”. In test [2], the “binding to the androgen receptor” value was 24±3%. Moreover, the gestagenic action result in test [3] is on record as “very little gestagenic action”. In addition, the androgenic activity entry in “Hershberger Test” is “significant androgenic activity”.
